pIC50: −log10 of the molar value. In brackets after ≈: the same amount, converted by molar mass. Values belong to the compound of their own block, whether it stands above or below them.
Tests used:
[1] = target: T1, CD11b/CD18 (Homo sapiens, UniProt P11215); assay: Adhesion of JY/CD11b cells to immobilized iC3b; format: cell-based; conditions: dose-dependent; relative to control DMSO treatment
T1 construct: expressed in transfected cells; host or cells: JY (human B lymphoblastoid) cells
Protocol: B. Adhesion Assay of JY/CD11b Cells to Immobilized iC3b
Briefly, each well of a 96-well plate was coated overnight at 4° C. with 50 μl glycophorin (10 μg/ml), iC3b (5 μg/ml) or with anti-CD18 monoclonal antibody (22F12C, 5 μg/ml) and anti-CD11b monoclonal antibody (44AACB, 5 µg/ml) in bicarbonate buffer (pH 9.6). Plates were blocked with human serum albumin in D-PBS for one hr at room temperature. JY cells transfected with CD11b (JY/CD11b cells) (100 μl at 1×10^6 cells/ml) in adhesion buffer were added to each well and incubation was carried out at 37° C. for 30 min. Plates were fixed and analyzed as described above in Example 1. Percentage of cells binding was determined using the equation below. [formula]
Data was normalized using the formula: [formula]

[2] = target: T2, ftsZ (Escherichia coli, UniProt P0A9A6); assay: ftsZ GTPase assay; format: biochemical
Protocol: An alternative assay that may be more sensitive was also devised. In this assay, 100 μg/ml ftsZ was incubated with 0.5 μM ^32P-γ-GTP. The GTPase activity of ftsZ liberates ^32PO4. By terminating the reaction with 25 mg/ml activated charcoal in 100 mM NaH2PO4 and centrifuging the product, the remaining ^32P-γ-GTP is trapped by the charcoal. Accordingly, the ^32PO4 that remains in the supernatant can be measured, providing a measurement of GTPase inhibition.

[3] = target: T2, ftsZ; assay: ftsZ polymerization assay; format: biochemical; conditions: read-out: IC50, ftsZ polymerization screen
Protocol: A polymerization assay for the identification of ftsZ inhibitors that can be performed in microtiter wells has been devised. The polymerization assay is an adaptation of a tubulin polymerization assay [Bollag et al., Cancer Research 55:2325-2333 (1995)], and involves the reversible polymerization of ftsz in a GTP-dependent fashion.
In the presence of GTP and 10 mM CaCl2, 5 nm ftsZ linear polymers assemble into higher order polymers [Yu et al., EMBO 16:5455-5463 (1997)] that are large enough to be trapped by a 0.2 μm filter. The protein that is retained on the filter can be stained and detected in a colorimetric assay. A reaction consisting of 300 μg/ml of ftsZ polymerized by 100 μM GTP was screened against candidate ftsZ inhibitors at 10 μM.

[4] = system: permeable tolC strain (plasmid only); assay: microbe, parasite or virus in culture; format: cell-based, E. coli; conditions: Escherichia coli, read-out: MIC, control strain
Protocol: (§1) A permeable bacteria] strain (AB734 TN10::tolC) was used in the screening method to maximize the ability of the compounds to cross the gram negative cell wall. Assays were conducted in accordance with the NCCLS protocols referenced herein.
(§2) It was of further interest to determine whether those compounds with antimicrobial activity worked in a ENR-dependent fashion. Two strains of the permeable tolC strain were constructed. In the first strain, the ENR protein was overexpressed by placing it under control of its own promoter on a moderate copy number plasmid, and the second strain served as a control including only the plasmid.

[5] = system: permeable tolC strain overexpressing ENR; assay: microbe, parasite or virus in culture; format: cell-based, E. coli; conditions: Escherichia coli, read-out: MIC, ENR-overexpressing strain
Protocol: as §1, §2

T2 sequence (P0A9A6 whole entry): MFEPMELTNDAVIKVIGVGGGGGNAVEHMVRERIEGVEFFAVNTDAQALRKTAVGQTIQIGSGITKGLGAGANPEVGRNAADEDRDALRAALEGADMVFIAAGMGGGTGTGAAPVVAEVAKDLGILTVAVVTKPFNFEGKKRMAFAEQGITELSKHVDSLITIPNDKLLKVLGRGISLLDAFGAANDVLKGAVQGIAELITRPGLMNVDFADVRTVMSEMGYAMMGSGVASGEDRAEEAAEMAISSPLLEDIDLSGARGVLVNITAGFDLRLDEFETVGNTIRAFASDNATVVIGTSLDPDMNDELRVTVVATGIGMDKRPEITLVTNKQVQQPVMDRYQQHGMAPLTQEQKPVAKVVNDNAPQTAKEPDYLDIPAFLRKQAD

stimulation of CD11b/CD18 binding to iC3b [1]: two times
Compound: CCCCC(CCCC)N(C(=O)CN1CC(c2ccc3c(c2)OCO3)C(C)C1C(C)(C)CCCC)c1ccc(F)c(C)c1 (stereo not shown) [Cmpd H]

stimulation of CD11b/CD18 binding to iC3b [1]: two times
Compound: O=[N+]([O-])c1cc(Cl)c(Sc2ccc(Cl)cc2Cl)cc1F [Cmpd C]

stimulation of CD11b/CD18 binding to iC3b [1]: two times
Compound: CCCCC(CCCC)N(C(=O)CN1CC(c2ccc3ccccc3c2)C(C(=O)O)C1c1ccc(OC)cc1)c1ccc(F)c(C)c1 (stereo not shown) [Cmpd I]

More lines, now with the values behind:

Compound: Nc1nc2c(ncn2[C@@H]2O[C@H](COP(=O)(O)OP(=O)(O)O)[C@@H](O)[C@H]2O)c(=O)[nH]1 [GDP]
pIC50 [2]: 5.10
pIC50 [3]: 3.60

Compound: Oc1cc(Cl)ccc1Oc1ccc(Cl)cc1Cl [triclosan]
MIC [4]: 0.031 µg/mL (≈ 0.107 µM)
MIC [5]: 1 µg/mL (≈ 3.45 µM)
